Data published in patent US11591323B2, “Muscarinic agonists as non-steroidal and non-opioid analgesics and methods of use thereof” (Barry University, priority 2019, dated 2023).

Biological target: T1, M2 muscarinic receptor (Homo sapiens, UniProt P08172)
T1 sequence (P08172 1-466): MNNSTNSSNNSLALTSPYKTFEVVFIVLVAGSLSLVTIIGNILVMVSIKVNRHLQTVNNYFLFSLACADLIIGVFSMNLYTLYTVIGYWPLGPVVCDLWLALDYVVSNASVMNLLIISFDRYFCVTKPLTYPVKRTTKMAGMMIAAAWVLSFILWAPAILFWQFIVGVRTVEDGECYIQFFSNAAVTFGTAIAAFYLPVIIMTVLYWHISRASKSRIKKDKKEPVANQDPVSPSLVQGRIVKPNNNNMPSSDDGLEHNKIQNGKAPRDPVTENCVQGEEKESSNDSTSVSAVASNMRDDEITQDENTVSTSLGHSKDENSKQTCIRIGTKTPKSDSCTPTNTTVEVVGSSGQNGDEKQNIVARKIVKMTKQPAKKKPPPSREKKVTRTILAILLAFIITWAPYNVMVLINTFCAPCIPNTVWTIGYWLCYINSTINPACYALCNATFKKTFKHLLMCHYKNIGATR
Test: accumulation of cAMP at PTX-treated CHO cells expressing M2
Format: cell-based
Set-up: host or cells: CHO cells, stably transfected
Conditions: for change in accumulation of cAMP: PTX-treated M2 CHO cells, forskolin-stimulated and basal, in words
Method: (§1) To exclude the possibility that activation of the non-preferential Gs pathway was obscured by activation of the preferential Gi/o pathway, accumulation of cAMP was measured in CHO cells expressing M2 or M4 receptors where Gi/o G-proteins were inactivated by pertussis toxin (PTX) treatment (FIG. 4).
Cell culture and membrane preparation: Chinese hamster ovary (CHO) cells stably transfected with the genes of individual human variants of muscarinic receptors were purchased from Missouri S&T cDNA Resource Center (Rolla, Mo., USA). Fresh primary cell culture of smooth muscle cells (SMC) from rat aorta prepared as previously described was kindly provided by Dr. Lucie Bačáková. Primary culture of SMCs was grown to confluency in 75 cm^2 flasks in Dulbecco's modified Eagle's medium supplemented with 10% fetal bovine serum. Up to 6-times, 2 million of cells were sub-cultured. […] Cells were grown to confluency in 75 cm^2 flasks in Dulbecco's modified Eagle's medium supplemented with 10% fetal bovine serum and 2 million of cells were subcultured in 100 mm Petri dishes. Medium was supplemented with 5 mM butyrate for the last 24 hours of cultivation to increase receptor expression. When needed, cells were cultivated with pertussis toxin at a final concentration of 25 ng/ml for the 24 hours. Cells were detached by mild trypsinization on day 5 after subculture. Detached cells were washed twice in 50 ml of phosphate-buffered saline and 3 min centrifugation at 250×g. […]
Measurements of the production of cAMP and inositol phosphates: Levels of second messengers cAMP and inositol phosphates were determined in radiochemical chromatography assays as described previously. […] Samples were applied to alumina columns (1.5 g of alumina per column), washed with 2 ml ammonium acetate (pH=7.0) and eluted from columns with 4 ml ammonium acetate and measured by liquid scintillation spectrometry. […] After separation of water and organic phases, 0.6 ml of water phase was applied to Dowex columns (1.5 g of Dowex per column), washed by 20 ml of 60 mM ammonium formate/5 mM sodium borate buffer and eluted from columns with 4 ml of 1M ammonium formate/0.1 formic acid buffer and measured by liquid scintillation spectrometry.
as §1, with “[…]” for “Gs”, “11). […]” for “4).”

| SMILES | change in accumulation of cAMP | EC50 in PTX treated cells versus non-treated cells (M2) |
| --- | --- | --- |
| C1=CCN(Cc2cccs2)CC1.Cl [Compound 6A, 1-[(thiophen-2-yl)methyl]-1,2,3,6-tetrahydropyridin-1-ium chloride] | did not change cAMP levels |  |
| C[N+]1(Cc2cccs2)CC=CCC1.[I-] (stereo not shown) [Compound 7A, 1-methyl-1-[(thiophen-2-yl)methyl]-1,2,3,6-tetrahydropyridin-1-ium iodide] | did not change cAMP levels |  |
| C[N+](C)(C)CCOC(N)=O [carbachol, reference compound] | about two-fold increase | the same |
